Reference: ChEMBL document CHEMBL5360657, “Discovery of the TLR7/8 Antagonist MHV370 for Treatment of Systemic Autoimmune Diseases” (ACS Med Chem Lett, 2023)

Legend:
[1] = MRT in mouse at 20 mg/kg, po; type: ADME, organism-based; conditions: in vivo
[2] = Inhibition of CYP2D9 (unknown origin); type: ADME, Homo sapiens
Toll-like receptor 4 = target: T1, Toll-like receptor 4 (Mus musculus, UniProt Q9QUK6); test: Antagonist activity at TLR4 in mouse Splenocyte assessed as reduction IL-6 level measured after 20 hrs by Spectramax M5 method; type: cell-based
T1 sequence (Q9QUK6 whole entry): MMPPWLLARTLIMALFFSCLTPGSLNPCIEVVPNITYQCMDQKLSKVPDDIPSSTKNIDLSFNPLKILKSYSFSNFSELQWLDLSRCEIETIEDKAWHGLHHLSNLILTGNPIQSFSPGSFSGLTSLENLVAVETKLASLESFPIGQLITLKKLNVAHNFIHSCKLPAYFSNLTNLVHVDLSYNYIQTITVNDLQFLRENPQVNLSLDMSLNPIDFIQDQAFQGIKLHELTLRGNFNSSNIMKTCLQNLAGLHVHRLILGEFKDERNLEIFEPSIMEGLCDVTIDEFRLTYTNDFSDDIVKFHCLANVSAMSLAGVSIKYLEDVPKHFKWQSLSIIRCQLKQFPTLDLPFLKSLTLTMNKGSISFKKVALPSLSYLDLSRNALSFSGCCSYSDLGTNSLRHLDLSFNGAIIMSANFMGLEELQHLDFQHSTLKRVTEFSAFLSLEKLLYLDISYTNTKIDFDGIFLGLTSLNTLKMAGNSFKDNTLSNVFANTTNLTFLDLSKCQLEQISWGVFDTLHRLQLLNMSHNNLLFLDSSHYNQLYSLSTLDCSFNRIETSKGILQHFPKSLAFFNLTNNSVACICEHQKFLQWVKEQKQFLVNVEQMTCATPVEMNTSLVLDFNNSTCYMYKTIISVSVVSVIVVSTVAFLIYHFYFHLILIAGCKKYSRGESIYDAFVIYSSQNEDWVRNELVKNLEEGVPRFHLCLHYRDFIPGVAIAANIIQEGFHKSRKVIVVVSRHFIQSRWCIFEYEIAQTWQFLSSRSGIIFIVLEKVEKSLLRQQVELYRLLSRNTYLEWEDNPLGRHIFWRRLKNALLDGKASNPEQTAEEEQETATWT

Toll-like receptor 8 = target: T2, Toll-like receptor 8 (Homo sapiens, UniProt Q9NR97); test: Antagonist activity at TLR8 in human Whole blood cell […] assessed as reduction in IL-6 level measured after 30 mins; type: tissue-based
T2 sequence (Q9NR97 whole entry): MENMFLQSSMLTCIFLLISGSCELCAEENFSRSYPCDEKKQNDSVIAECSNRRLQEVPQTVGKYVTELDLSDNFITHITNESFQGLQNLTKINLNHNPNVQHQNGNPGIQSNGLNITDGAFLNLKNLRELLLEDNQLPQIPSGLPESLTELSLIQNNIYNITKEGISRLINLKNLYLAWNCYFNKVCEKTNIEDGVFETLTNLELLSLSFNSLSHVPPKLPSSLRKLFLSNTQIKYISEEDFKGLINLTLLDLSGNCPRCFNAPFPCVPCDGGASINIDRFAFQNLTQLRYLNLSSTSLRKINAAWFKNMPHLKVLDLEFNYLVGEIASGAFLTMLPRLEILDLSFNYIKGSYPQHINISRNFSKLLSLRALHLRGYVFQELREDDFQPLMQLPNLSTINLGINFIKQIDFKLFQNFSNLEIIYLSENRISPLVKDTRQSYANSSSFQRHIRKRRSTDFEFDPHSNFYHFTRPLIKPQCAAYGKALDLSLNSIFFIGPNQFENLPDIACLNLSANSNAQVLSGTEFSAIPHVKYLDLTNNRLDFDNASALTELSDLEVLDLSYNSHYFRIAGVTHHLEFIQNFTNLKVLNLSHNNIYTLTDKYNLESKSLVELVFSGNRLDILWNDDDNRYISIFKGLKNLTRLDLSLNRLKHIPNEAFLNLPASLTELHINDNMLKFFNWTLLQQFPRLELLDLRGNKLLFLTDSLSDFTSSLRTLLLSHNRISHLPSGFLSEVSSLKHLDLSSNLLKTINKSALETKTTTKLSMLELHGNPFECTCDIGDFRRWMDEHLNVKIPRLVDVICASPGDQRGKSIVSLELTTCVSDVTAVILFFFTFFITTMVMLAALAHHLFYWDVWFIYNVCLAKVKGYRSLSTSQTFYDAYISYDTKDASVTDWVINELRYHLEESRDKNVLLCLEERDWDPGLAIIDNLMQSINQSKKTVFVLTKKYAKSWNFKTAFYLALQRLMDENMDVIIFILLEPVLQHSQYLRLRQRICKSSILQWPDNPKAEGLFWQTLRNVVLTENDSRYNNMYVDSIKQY

Toll-like receptor 9 = target: T3, Toll-like receptor 9 (Homo sapiens, UniProt Q9NR96); test: Antagonist activity at TLR9 in human Whole blood cell assessed as reduction in IFN-alpha level measured after 30 mins; type: tissue-based
T3 sequence (Q9NR96 whole entry): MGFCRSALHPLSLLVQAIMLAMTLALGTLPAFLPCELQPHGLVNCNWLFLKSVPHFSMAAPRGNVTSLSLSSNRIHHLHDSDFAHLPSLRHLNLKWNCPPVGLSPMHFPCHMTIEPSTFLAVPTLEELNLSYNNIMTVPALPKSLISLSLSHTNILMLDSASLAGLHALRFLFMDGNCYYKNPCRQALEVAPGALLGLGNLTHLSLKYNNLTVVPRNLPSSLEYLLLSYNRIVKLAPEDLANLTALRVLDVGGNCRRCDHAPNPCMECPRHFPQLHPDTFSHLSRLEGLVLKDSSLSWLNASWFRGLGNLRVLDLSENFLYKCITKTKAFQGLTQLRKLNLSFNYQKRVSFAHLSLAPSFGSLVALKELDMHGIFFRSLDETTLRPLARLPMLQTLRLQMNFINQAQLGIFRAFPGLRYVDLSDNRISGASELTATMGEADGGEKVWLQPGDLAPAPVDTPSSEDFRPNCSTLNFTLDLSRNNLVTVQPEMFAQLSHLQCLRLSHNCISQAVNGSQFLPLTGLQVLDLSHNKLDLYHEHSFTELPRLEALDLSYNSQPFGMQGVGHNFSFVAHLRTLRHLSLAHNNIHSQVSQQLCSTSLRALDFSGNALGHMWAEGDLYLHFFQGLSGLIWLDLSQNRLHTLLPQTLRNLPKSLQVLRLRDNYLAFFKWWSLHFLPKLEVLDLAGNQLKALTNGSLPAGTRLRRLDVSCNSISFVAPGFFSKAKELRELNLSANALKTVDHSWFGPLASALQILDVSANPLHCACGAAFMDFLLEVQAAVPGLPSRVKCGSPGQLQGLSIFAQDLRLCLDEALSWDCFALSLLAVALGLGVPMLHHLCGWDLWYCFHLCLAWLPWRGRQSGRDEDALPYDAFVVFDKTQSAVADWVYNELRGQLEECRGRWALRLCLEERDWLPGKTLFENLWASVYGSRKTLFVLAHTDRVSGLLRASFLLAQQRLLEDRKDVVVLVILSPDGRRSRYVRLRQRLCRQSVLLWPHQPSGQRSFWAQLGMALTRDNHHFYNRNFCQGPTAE

| MRT [1] [h] | IC50 [2] [µM] | SMILES | IC50 (Toll-like receptor 4) [µM] | IC50 (Toll-like receptor 8) [µM] | IC50 (Toll-like receptor 9) [µM] |
| --- | --- | --- | --- | --- | --- |
| 2.9 | > 25 | Cc1cc(N2CCc3c(c(C)nn3CC34CCC(N)(CC3)CC4)C2)c2cnn(C)c2n1 |  |  |  |
|  |  | Cc1cc(N2CCc3c(c(C)nn3CC34CCC(NC(=O)[C@@H]5COCCN5)(CC3)CC4)C2)c2cnn(C)c2n1 [MHV-370] | > 10 | 0.074 | 1.2 |
